Tests used:
human HDAC2 = biological target: T1, human HDAC2 (Homo sapiens, UniProt Q92769); assay: Fluorometric HDAC activity assay, purified human HDAC2; type: biochemical; conditions: purified human HDAC2, n=4-5
T1 construct: purchased BPS Bioscience 50062
Method: (§1) In order to directly test whether diacetyl acts as an inhibitor of HDACs, in vitro acetylation assays was performed with purified human HDACs. In this example, β-hydroxybutyrate (a naturally-occurring HDAC inhibitor secreted by the liver, targeting zinc-dependent HDACs) was used for comparison. HDAC activity of class I HDACs (HDAC1, 2, 3 and 8) was measured with the fluorometric HDAC Activity Assay kit: HDAC1 (10011563, Cayman Chemical, Ann Arbor, Mich.), HDAC2, HDAC 3 and HDAC 8 (50062, 50073 and 50068, BPS Bioscience, San Diego, Calif.), according to the manufacturer's instructions.

Gr63a = assay: Whole mount RNA in situ of adult Drosophila antenna Gr63a; type: in vivo; conditions: 5 days; odor 1 1% on filter paper, sodium butyrate 10 mM fed; vs untreated or mock
Method: For five days, Drosophila were exposed to 1% diacetyl (odor 1) on filter paper; fed known HDAC inhibitor sodium butyrate (Na-but; 10 mM); or fed known HDAC inhibitor valproic acid (10 mM).

human HDAC8 = biological target: T2, human HDAC8 (Homo sapiens, UniProt Q9BY41); assay: Fluorometric HDAC activity assay, purified human HDAC8; type: biochemical; conditions: purified human HDAC8, n=4-5
T2 construct: purchased BPS Bioscience 50068
T2 sequence (Q9BY41 1-377): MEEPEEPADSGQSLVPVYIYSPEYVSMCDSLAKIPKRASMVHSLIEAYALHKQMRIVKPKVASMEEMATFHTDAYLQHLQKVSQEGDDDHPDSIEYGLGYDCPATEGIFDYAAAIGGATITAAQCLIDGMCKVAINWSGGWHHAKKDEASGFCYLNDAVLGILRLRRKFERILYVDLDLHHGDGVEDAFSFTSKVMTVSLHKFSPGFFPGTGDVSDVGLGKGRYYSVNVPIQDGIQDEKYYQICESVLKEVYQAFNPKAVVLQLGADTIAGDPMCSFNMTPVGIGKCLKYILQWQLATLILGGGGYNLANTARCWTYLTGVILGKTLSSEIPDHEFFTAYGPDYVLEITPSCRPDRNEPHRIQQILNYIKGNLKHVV
Method: as §1

[1] = tested on: gene expression in the antenna of Drosophila melanogaster; assay: RNA-seq transcriptome analysis of Drosophila antennae after exposure or feeding; type: in vivo
From the text: In order to examine the physiological effects of long-term exposure to an odorant, flies were maintained in vials with circulating volatiles from headspace of a low concentration (1% in paraffin oil) of the odorant diacetyl, which acts on a number of different receptor pathways in Drosophila. In a similar manner to previous odor-exposure studies, flies were exposed to diacetyl for 5 days and performed an RNA-seq analysis of the antennae, which are known odor-detecting organs. The transcriptome was compared with a control group of age-matched flies that were exposed to the headspace of the solvent paraffin oil (PO, FIG. 3A).
Flies were exposed to diacetyl (2,3-Butanedione, B85307, Sigma-Aldrich, St. Louis, Mo.) by placing them in vials in a cylindrical closed container (112 mm diameter×151 mm height) along with an odor-containing glass vial. The odorant was dissolved in 10 mL paraffin oil at 1% dilution. For a given exposure protocol, two groups of flies were prepared: those exposed to 1% diacetyl headspace and those exposed to paraffin oil headspace alone (control flies). Adult male flies aged 1 d were transferred to fly vials containing fresh medium, and put into the container with the odor vial. At the end of the fifth day of exposure, flies were collected, and their antennae were dissected for RNA extraction. All treatments and experiments were performed at room temperature. For the recovery experiment, flies were transferred again to the container containing a glass vial of paraffin oil after 5 days of diacetyl exposure. At the end of the fifth day of recovery, flies were collected, and their antennae were dissected for RNA extraction.
Sodium butyrate (B5887, Sigma-Aldrich) or valproic acid (P4543, Sigma-Aldrich) were dissolved in normal fly food medium at the final concentration of 10 mM. Three groups of flies were prepared: those treated with one of the HDAC inhibitors and those without HDAC inhibitor treatment (control flies). Adult flies aged 1 d were transferred to fly vials containing medium with or without a HDAC inhibitor. At the end of the fifth day of treatment, flies were collected, and their antennae were dissected for RNA extraction. All treatments and experiments were performed at room temperature.
The second and third antennal segments from 40-60 male flies after treatment were carefully hand-dissected from the head, collected in 1.5 ml microfuge tubes kept cold in liquid nitrogen. Antennae were mechanically crushed with disposable RNAse-free plastic pestles, and total RNA was isolated using a Trizol-based protocol. cDNA libraries were prepared from total RNA (300-1000 ng/sample) using the Illumina TruSeq RNA Library Preparation Kit (Illumina Catalog #RS-122-2001). Samples were submitted to the UCR IIGB sequencing core for high-throughput sequencing using the Illumina HiSeq2500 platform. Raw reads were aligned to the Drosophila melanogaster reference genome (dmel-all-chromosome-r5.48.fasta) with Tophat2, and a count table of reads overlapping with exonic regions of genes was generated by the UCR bioinformatics core. The numbers of biological replicates are: 2, day 5 paraffin oil; 1, day 5 diacetyl; 2, day 5 mock; 2, day 5 sodium butyrate; 2, day 5 valproic acid; 2, day 10 paraffin oil recovery; 2, day 10 diacetyl recovery.
The read count table for all the genes were then imported into R and a statistical analysis of differential gene expression using the DESeq package (1.22.0) was performed. […] The gene list analysis was performed using the GO Term Mapper (http://go.princeton.edu/) with Generic GO slim datasets, and the Statistical overrepresentation test was performed using the PANTHER classification (http://www.pantherdb.org/) system with GO complete datasets.
This example investigates the overlap among genes modulated by diacetyl as compared to sodium butyrate and valproic acid, which are known HDAC inhibitors. […]

[2] = 5 days, diacetyl 1% headspace, SB/VA 10 mM in food, vs control
[3] = of 125 up-regulated genes, 5 days exposure then 5 days recovery
[4] = out of 125 diacetyl-induced genes

T1 sequence (Q92769 whole entry): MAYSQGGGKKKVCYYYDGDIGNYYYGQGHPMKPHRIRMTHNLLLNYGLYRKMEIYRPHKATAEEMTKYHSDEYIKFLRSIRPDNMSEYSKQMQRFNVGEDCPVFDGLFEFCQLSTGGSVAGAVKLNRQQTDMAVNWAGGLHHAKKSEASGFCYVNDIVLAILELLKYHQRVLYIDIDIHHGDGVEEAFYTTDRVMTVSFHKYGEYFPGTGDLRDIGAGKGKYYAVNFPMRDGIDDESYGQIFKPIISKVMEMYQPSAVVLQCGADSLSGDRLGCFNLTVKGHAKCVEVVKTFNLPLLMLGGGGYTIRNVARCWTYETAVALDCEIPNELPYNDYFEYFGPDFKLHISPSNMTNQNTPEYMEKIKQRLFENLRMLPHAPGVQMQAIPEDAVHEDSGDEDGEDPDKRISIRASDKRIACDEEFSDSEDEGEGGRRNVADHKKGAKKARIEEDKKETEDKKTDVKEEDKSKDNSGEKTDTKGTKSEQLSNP

## CC(=O)C(C)=O [diacetyl, 2,3-Butanedione]
Human HDAC2
  IC50: 11.2 mM
Gr63a
  Gr63a expression in antenna (RNA in situ): over-expression
Human HDAC8
  IC50: 11.4 mM
[1]; [2]
  number of differentially-expressed genes in antennal transcriptome: 202 genes
  number of genes down-regulated >2-fold: 77 genes
  number of genes up-regulated >2-fold: 125 genes
[1]; [3]
  genes continuing to show increased mRNA abundance after odor removal: 11 genes
  genes showing little change after recovery: 38 genes
  transcripts showing a reduction with diacetyl recovery: 27 genes
[1]; out of 77 down-regulated genes
  diacetyl down-regulated genes overlapping with those down-regulated in either SB- or VA-treated groups: About 28 genes
[1]; [4]
  diacetyl-induced genes overlapping with SB-induced genes: 51 genes
  diacetyl-induced genes overlapping with VA-induced genes: 40 genes

— patent US10537535B2, “Histone deacetylase inhibitors” (The Regents of the University of California, priority 2015, dated 2020)
